From ChEMBL document CHEMBL1129109, “Synthesis of cystamidin a (pyrrole-3-propanamide), a reported calpain inhibitor” (Bioorg Med Chem Lett, 1996)

Biological target: T1, Calpain-1 catalytic subunit (Homo sapiens, UniProt P07384)
T1 sequence (P07384 whole entry): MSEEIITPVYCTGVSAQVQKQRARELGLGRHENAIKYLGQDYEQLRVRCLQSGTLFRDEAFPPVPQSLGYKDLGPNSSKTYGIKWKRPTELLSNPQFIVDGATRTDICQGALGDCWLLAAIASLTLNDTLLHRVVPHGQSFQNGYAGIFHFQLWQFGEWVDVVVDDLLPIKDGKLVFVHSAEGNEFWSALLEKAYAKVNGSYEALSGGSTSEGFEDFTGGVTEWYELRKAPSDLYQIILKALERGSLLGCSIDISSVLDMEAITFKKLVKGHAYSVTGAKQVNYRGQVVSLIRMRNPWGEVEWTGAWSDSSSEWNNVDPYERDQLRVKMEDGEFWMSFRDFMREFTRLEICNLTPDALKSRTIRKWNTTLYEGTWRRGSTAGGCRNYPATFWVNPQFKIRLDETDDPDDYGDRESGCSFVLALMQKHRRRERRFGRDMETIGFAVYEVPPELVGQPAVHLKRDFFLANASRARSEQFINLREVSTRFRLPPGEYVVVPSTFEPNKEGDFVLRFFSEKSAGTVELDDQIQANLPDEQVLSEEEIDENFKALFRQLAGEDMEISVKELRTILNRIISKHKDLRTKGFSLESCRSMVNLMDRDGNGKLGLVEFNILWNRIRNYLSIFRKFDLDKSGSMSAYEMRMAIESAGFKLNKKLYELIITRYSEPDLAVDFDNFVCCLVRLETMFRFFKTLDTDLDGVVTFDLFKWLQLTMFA
Test: Inhibitory activity against calpain

IC50: 1400 nM
SMILES: NC(=O)CCc1cc[nH]c1
